Results reported in patent publication US20060052415A1, “N-{2-chloro-4-[(6,7-dimethoxy-4-quinolyl)oxy]phenyl}-n'-(5-methyl-3-isoxazolyl)urea salt in crystalline form” (KIRIN BEER KABUSHIKI KAISHA, priority 2002, published 2006).
“Also recorded” adds a separate entry of the source.

Legend:
Assay type in all cases: physicochemical
[1] = Stability of crystal under heating (73° C.) conditions; details: stored at 73° C. for 2 weeks
Procedure: (§1) X-ray diffraction patterns of crystals were taken using Cu-Kα radiation (40 kV, 40 mA, λ=1.541 angstroms) with a powder X-ray diffraction apparatus (X-ray diffraction RINT DMAX-2000, manufactured by Rigaku Industrial Corporation) (scanning speed: 5 degrees/min, scanning range: 5.000 to 40.000 degrees, filter: Kβ filter). Based on powder X-ray diffraction patterns thus obtained, peak positions and relative intensity (%) were determined for peaks with a relative intensity of not less than 20%.
Stability of Crystal Under Heating (73° C.) Conditions
(§2) Form I to III crystals of hydrochloride, form I crystal of nitrate, form I and II crystals of sulfate, form I crystal of methanesulfonate, form I and II crystals of p-toluenesulfonate, and form I and II crystals of maleate of N-{2-chloro-4-[(6,7-dimethoxy-4-quinolyl)oxy]phenyl}-N′-(5-methyl-3-isoxazolyl)urea were stored at 73° C. for 2 weeks. […]

[2] = Stability of crystal against physical stress (grinding in a mortar); details: ground in an agate or porcelain mortar
Procedure: as §1
Stability of Crystal Against Physical Stress
Each of form I to III crystals of hydrochloride, form I crystal of nitrate, form I and II crystals of sulfate, form I crystal of methanesulfonate, form I and II crystals of p-toluenesulfonate, and form I and II crystals of maleate of N-{2-chloro-4-[(6,7-dimethoxy-4-quinolyl)oxy]phenyl}-N′-(5-methyl-3-isoxazolyl)urea was ground in a mortar. In grinding each crystal in the mortar, about 1 mg of each crystal sample was placed and ground in an agate mortar or a porcelain mortar. For each sample before and after grinding, a powder X-ray diffraction chart was measured by method 1 to evaluate the stability of the crystal against physical stress.

[3] = Stability of crystal under high humidity (40° C., 75% RH) conditions; details: stored at 40° C. and 75% RH for 2 weeks
Procedure: as §1
Stability of Crystal Under High Humidity (40° C., 75% RH) Conditions
as §2, with “under conditions of 40°” for “at 73°”, “C. and 75% RH” for “C.”

[4] = Hygroscopicity of crystal (weight change on storage); details: 40° C. and 75% RH; for hygroscopicity (level, in words): 2 weeks, based on weight change
Procedure: Hygroscopicity of Crystal
Form I to III crystals of hydrochloride, form I crystal of nitrate, form I and II crystals of sulfate, form I crystal of methanesulfonate, form I and II crystals of p-toluenesulfonate, and form I and II crystals of maleate of N-{2-chloro-4-[(6,7-dimethoxy-4-quinolyl)oxy]phenyl}-N′-(5-methyl-3-isoxazolyl)urea were stored under conditions of 40° C. and 75% RH for 2 weeks. Before and after the storage, the weight of each crystal was measured to determine a difference in weight between before the storage and after the storage.
For each crystal, the hygroscopicity was evaluated based on the weight change.

[5] = listed as form II crystal of hydrochloride, hydrochloride

Compound	stability of crystal under high temperature conditions (change of powder X-ray diffraction chart) [1]	stability of crystal under high humidity conditions (change of powder X-ray diffraction chart) [3]	stability of crystal against physical stress (powder X-ray diffraction before and after grinding) [2]	hygroscopicity (level, in words) [4]	weight change (hygroscopicity) After 1 week [4] [%]	weight change (hygroscopicity) After 2 weeks [4] [%]	weight change (hygroscopicity) After 2 days [4] [%]	also measured
COc1cc2nccc(Oc3ccc(NC(=O)Nc4cc(C)on4)c(Cl)c3)c2cc1OC.O=C(O)/C=C\C(=O)O [Form I crystal of maleate, N-{2-chloro-4-[(6,7-dimethoxy-4-quinolyl)oxy]phenyl}-N′-(5-methyl-3-isoxazolyl)urea maleate]	excellent stability	excellent stability	–	–	–	–	–	stability of crystal against physical stress (powder X-ray diffraction before and after grinding) ([2]; maleate): lowering in peak intensity; hygroscopicity (level, in words) ([4]; maleate): low level of hygroscopicity; also recorded: on a low level; weight change (hygroscopicity) After 1 week ([4]; maleate): 0.41%; weight change (hygroscopicity) After 2 weeks ([4]; maleate): 0.53%; weight change (hygroscopicity) After 2 days ([4]; maleate): 0.46%
COc1cc2nccc(Oc3ccc(NC(=O)Nc4cc(C)on4)c(Cl)c3)c2cc1OC.CS(=O)(=O)O [Form I crystal of methanesulfonate, N-{2-chloro-4-[(6,7-dimethoxy-4-quinolyl)oxy]phenyl}-N′-(5-methyl-3-isoxazolyl)urea methanesulfonate]	excellent stability	excellent stability	excellent stability	highly hygroscopic	2.70	2.84	2.58	–
COc1cc2nccc(Oc3ccc(NC(=O)Nc4cc(C)on4)c(Cl)c3)c2cc1OC.O=[N+]([O-])O [Form I crystal of nitrate, N-{2-chloro-4-[(6,7-dimethoxy-4-quinolyl)oxy]phenyl}-N′-(5-methyl-3-isoxazolyl)urea nitrate]	excellent stability	excellent stability	excellent stability	highly hygroscopic	2.22	2.22	2.04	–
COc1cc2nccc(Oc3ccc(NC(=O)Nc4cc(C)on4)c(Cl)c3)c2cc1OC.Cc1ccc(S(=O)(=O)O)cc1 [Form I crystal of p-toluenesulfonate, N-{2-chloro-4-[(6,7-dimethoxy-4-quinolyl)oxy]phenyl}-N′-(5-methyl-3-isoxazolyl)urea p-toluenesulfonate]	excellent stability	excellent stability	excellent stability	–	–	–	–	hygroscopicity (level, in words) ([4]; p-toluenesulfonate): low level of hygroscopicity; also recorded: on a low level; weight change (hygroscopicity) After 1 week ([4]; p-toluenesulfonate): 0.24%; weight change (hygroscopicity) After 2 weeks ([4]; p-toluenesulfonate): 0.25%; weight change (hygroscopicity) After 2 days ([4]; p-toluenesulfonate): 0.29%
COc1cc2nccc(Oc3ccc(NC(=O)Nc4cc(C)on4)c(Cl)c3)c2cc1OC.O=S(=O)(O)O [Form I crystal of sulfate, N-{2-chloro-4-[(6,7-dimethoxy-4-quinolyl)oxy]phenyl}-N′-(5-methyl-3-isoxazolyl)urea sulfate]	–	–	lowering in peak intensity	highly hygroscopic	4.21	4.25	4.20	stability of crystal under high temperature conditions (change of powder X-ray diffraction chart) ([1]; listed as form I crystal of sulfate, sulfate): excellent stability; stability of crystal under high humidity conditions (change of powder X-ray diffraction chart) ([3]; sulfate): converted to a mixture of form I crystal and a novel crystalline form
COc1cc2nccc(Oc3ccc(NC(=O)Nc4cc(C)on4)c(Cl)c3)c2cc1OC.Cl [Form II crystal of hydrochloride, N-{2-chloro-4-[(6,7-dimethoxy-4-quinolyl)oxy]phenyl}-N′-(5-methyl-3-isoxazolyl)urea hydrochloride]	–	–	–	–	–	–	–	stability of crystal under high temperature conditions (change of powder X-ray diffraction chart) [1, 5]: excellent stability; stability of crystal against physical stress (powder X-ray diffraction before and after grinding) [2, 5]: excellent stability; stability of crystal under high humidity conditions (change of powder X-ray diffraction chart) [3, 5]: excellent stability; hygroscopicity (level, in words) ([4]; hydrochloride): low level of hygroscopicity; also recorded: on a low level; weight change (hygroscopicity) After 1 week ([4]; hydrochloride): 0.29%; weight change (hygroscopicity) After 2 weeks ([4]; hydrochloride): 0.20%; weight change (hygroscopicity) After 2 days ([4]; hydrochloride): 0.30%
COc1cc2nccc(Oc3ccc(NC(=O)Nc4cc(C)on4)c(Cl)c3)c2cc1OC.O=C(O)/C=C\C(=O)O [Form II crystal of maleate, N-{2-chloro-4-[(6,7-dimethoxy-4-quinolyl)oxy]phenyl}-N′-(5-methyl-3-isoxazolyl)urea maleate]	excellent stability	excellent stability	–	–	–	–	–	stability of crystal against physical stress (powder X-ray diffraction before and after grinding) ([2]; maleate): excellent stability; hygroscopicity (level, in words) ([4]; maleate): low level of hygroscopicity; also recorded: on a low level; weight change (hygroscopicity) After 1 week ([4]; maleate): 0.42%; weight change (hygroscopicity) After 2 weeks ([4]; maleate): 0.57%; weight change (hygroscopicity) After 2 days ([4]; maleate): 0.60%
COc1cc2nccc(Oc3ccc(NC(=O)Nc4cc(C)on4)c(Cl)c3)c2cc1OC.Cc1ccc(S(=O)(=O)O)cc1 [Form II crystal of p-toluenesulfonate, N-{2-chloro-4-[(6,7-dimethoxy-4-quinolyl)oxy]phenyl}-N′-(5-methyl-3-isoxazolyl)urea p-toluenesulfonate]	excellent stability	excellent stability	excellent stability	–	–	–	–	hygroscopicity (level, in words) ([4]; p-toluenesulfonate): low level of hygroscopicity; also recorded: on a low level; weight change (hygroscopicity) After 1 week ([4]; p-toluenesulfonate): 0.70%; weight change (hygroscopicity) After 2 weeks ([4]; p-toluenesulfonate): 0.80%; weight change (hygroscopicity) After 2 days ([4]; p-toluenesulfonate): 0.84%
COc1cc2nccc(Oc3ccc(NC(=O)Nc4cc(C)on4)c(Cl)c3)c2cc1OC.O=S(=O)(O)O [Form II crystal of sulfate, N-{2-chloro-4-[(6,7-dimethoxy-4-quinolyl)oxy]phenyl}-N′-(5-methyl-3-isoxazolyl)urea sulfate]	–	–	–	–	–	–	–	stability of crystal under high temperature conditions (change of powder X-ray diffraction chart) ([1]; listed as form II crystal of sulfate, sulfate): converted to a novel crystalline form; stability of crystal under high humidity conditions (change of powder X-ray diffraction chart) ([3]; listed as from II crystal of sulfate, sulfate): converted to a novel crystalline form
